In patent US12532889B2, “Herbicidal compositions comprising glufosinate” (BASF SE, priority 2023, dated 2026):
Several values for one entry are separate records, joined by “and”; a condition that tells them apart may be missing. Equal entries are not always repeated.

How the values were obtained:
Experiment in all cases: Post-emergence application in field trials (Example A)
Type in all cases: in vivo
[1] = system: LOLMU (Lolium multiflorum); conditions: growth stage 22-25, height 20-25 cm
Protocol: (§1) In the examples below, using the method of S. R. Colby (1967) “Calculating synergistic and antagonistic responses of herbicide combinations”, Weeds 15, p. 22ff., the value E, which is expected if the activity of the individual active compounds is only additive, was calculated:
(§2) [formula] • where • X=percent activity using active herbicide A at an application rate a; • Y=percent activity using active herbicide B (e.g. glufosinate) at an application rate b; • E=expected activity (in %) by A+B at application rates a+b.
(§3) If the value found experimentally is higher than the value E calculated according to Colby, a synergistic effect is present.
(§4) On field test sites, natural weed infestation or seeded weeds were treated post-emergence of the weeds.
(§5) In the field trials, the weeds were treated as indicated below.
(§6) In the following experiments, the herbicidal activity for the individual herbicidal compositions (solo and mixture applications) was assessed at the indicated days after treatment (DAT). The assessments for the damage on undesired weeds caused by the composition was carried out using a scale from 0 to 100%, compared to the untreated control plants. Here, 0 means no damage and 100 means complete destruction of the plants.

[2] = system: ECHCG (Echinocloa crus-galli); conditions: growth stage 23-30, height 15-20 cm
Protocol: as §1, §2, §3, §4, §5, §6

[3] = system: HORVW (Hordeum vulgare (winter barley)); conditions: growth stage 23-29, height 20-25 cm
Protocol: as §1, §2, §3, §4, §5, §6

[4] = system: SETVE (Setaria verticillata); conditions: 42 DAT; C-4 12.5 g ai/ha; growth stage 21-23; height 8-16 cm
Protocol: as §1, §2, §3, §4, §5, §6

[5] = system: DIGSA (Digitaria sanguinalis); conditions: height 10-15 cm
Protocol: as §1, §2, §3, §4, §5, §6

[6] = system: GLXMA (Glycine max); conditions: 42 DAT, growth stage 13, height 5-10 cm
Protocol: as §1, §2, §3, §4, §5, §6

[7] = system: ZEAMX (Zea mays); conditions: C-4 12.5 g ai/ha, growth stage 15-16
Protocol: as §1, §2, §3, §4, §5, §6

With `C#CCN1C(=O)C(F)(F)Oc2cc(F)c(-n3c(=O)n(C)c(=S)n(C)c3=O)cc21` [C-4, trifludimoxazin] the “% Herbicidal activity” value ([1]; 7 DAT, C-4 12.5 g ai/ha) was 40%, the “% Herbicidal activity” value ([1]; 28 DAT, C-4 12.5 g ai/ha) was 30% and the “% Herbicidal activity” value ([2]; 7 DAT, C-4 12.5 g ai/ha) was 40%. For the same molecule, the “% Herbicidal activity” value ([2]; 21 DAT, C-4 12.5 g ai/ha) was 20%, the “% Herbicidal activity” value ([2]; 28 DAT, C-4 12.5 g ai/ha) was 40% and 20% and the “% Herbicidal activity” value ([3]; 7 DAT, C-4 12.5 g ai/ha) was 40% and 30%. The “% Herbicidal activity” value ([3]; 21 DAT, C-4 12.5 g ai/ha) was 30%, the “% Herbicidal activity” value [4] was 25% and the “% Herbicidal activity” value ([5]; 7 DAT, C-4 12.5 g ai/ha, growth stage 22) was 40%. The “% Herbicidal activity” value ([5]; 21 DAT, C-4 12.5 g ai/ha, growth stage 22) was 40%, the “% Herbicidal activity” value ([5]; 41 DAT, C-4 12.5 g ai/ha, growth stage 22) was 25% and the “% Herbicidal activity” value ([5]; 42 DAT, C-4 12.5 g ai/ha, growth stage 22) was 25%. The “% Herbicidal activity” value ([6]; C-4 12.5 g ai/ha) was 60%, the “% Herbicidal activity” value ([7]; 21 DAT, height 27-33 cm) was 30% and the “% Herbicidal activity” value ([7]; 28 DAT, height 50-60 cm) was 30%. For the same molecule, the “% Herbicidal activity” value ([7]; 42 DAT, height 27-33 cm) was 25% and 20%.
For `CC(C)N(C)S(=O)(=O)NC(=O)c1cc(-n2c(=O)cc(C(F)(F)F)n(C)c2=O)c(F)cc1Cl` [C-1, saflufenacil], the “% Herbicidal activity” value ([1]; 7 DAT, C-1 12.5 g ai/ha) was 20%, the “% Herbicidal activity” value ([1]; 28 DAT, C-1 12.5 g ai/ha) was 20% and the “% Herbicidal activity” value ([2]; 7 DAT, C-1 12.5 g ai/ha) was 20%. The “% Herbicidal activity” value ([2]; 28 DAT, C-1 12.5 g ai/ha) was 20%, the “% Herbicidal activity” value ([3]; 7 DAT, C-1 12.5 g ai/ha) was 20% and the “% Herbicidal activity” value ([5]; 20 DAT, C-1 12.5 g ai/ha, growth stage 21-22) was 20%. The “% Herbicidal activity” value ([6]; C-1 12.5 g ai/ha) was 60%.
